Measurements reported in patent US20030055065A1, “Tricyclic amide and urea compounds useful for inhibition of G-protein function and for treatment of proliferative diseases” (priority 1993, published 2003).

Each compound was assayed against T1, farnesyl protein transferase (FPT), partially purified from rat brain (Rattus norvegicus, UniProt Q02293+Q04631) (assay: Inhibition of farnesyl protein transferase (transfer of [3H]farnesyl to Ras-CVLS)). Conditions: FPT IC50, enzyme inhibition.
T1 construct: were partially purified from rat brain by ammonium sulfate fractionation followed by Q-Sepharose
T1 sequence (Q02293 whole entry, one chain of several): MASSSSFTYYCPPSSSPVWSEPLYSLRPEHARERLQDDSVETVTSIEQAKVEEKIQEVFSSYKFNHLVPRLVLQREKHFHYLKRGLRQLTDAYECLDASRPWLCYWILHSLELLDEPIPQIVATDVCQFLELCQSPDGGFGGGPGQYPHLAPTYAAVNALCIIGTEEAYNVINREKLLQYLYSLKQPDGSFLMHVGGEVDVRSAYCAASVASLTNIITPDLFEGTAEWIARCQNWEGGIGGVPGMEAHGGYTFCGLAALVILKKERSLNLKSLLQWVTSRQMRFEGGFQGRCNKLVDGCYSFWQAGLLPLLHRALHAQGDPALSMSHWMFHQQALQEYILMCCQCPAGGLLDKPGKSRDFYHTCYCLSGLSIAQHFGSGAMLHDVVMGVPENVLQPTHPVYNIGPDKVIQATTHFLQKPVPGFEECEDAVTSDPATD
Type: biochemical
Experimental: 1. In vitro enzyme assays: Inhibition of farnesyl protein transferase and geranylgeranyl protein transferase.
Human farnesyl protein transferase was also expressed in E. coli, using cDNA clones encoding both the α and β subunits. […] Human farnesyl protein transferase was partially-purified from the soluble protein fraction of E. coli as described above. […] Two forms of val^12-Ha-Ras protein were prepared as substrates for these enzymes, differing in their carboxy terminal sequence. One form terminated in cysteine-valine-leucine-serine (Ras-CVLS) the other in cystein-valine-leucine-leucine (Ras-CVLL). Ras-CVLS is a substrate for the farnesyl protein transferase while Ras-CVLL is a substrate for geranylgeranyl protein transferase I. The cDNAs encoding these proteins were constructed so that the proteins contain an amino-terminal extension of 6 histidine residues. Both proteins were expressed in Escherichia coli and purified using metal chelate affinity chromatography. The radiolabelled isoprenyl pyrophosphate substrates, [^3H]farnesyl pyrophosphate and [3H]geranylgeranyl pyrophosphate, were purchased from DuPont/New England Nuclear.
The reaction was allowed to proceed for 30 minutes at room temperature and then stopped with 0.5 ml of 4% sodium dodecyl sulfate (SDS) followed by 0.5 ml of cold 30% trichloracetic acid (TCA). Samples were allowed to sit on ice for 45 minutes and precipitated Ras protein was then collected on GF/C filter paper mats using a Brandel cell harvester. […] Percent inhibition was calculated relative to the DMSO vehicle control.
In the case of `O=C(Cc1ccc[n+]([O-])c1)N1CCN([C@H]2c3ccc(Cl)cc3CCc3cccnc32)CC1` [Example 425-G], the IC50 is reported as 2.3 µM.
`O=C(Cc1ccc[n+]([O-])c1)N1CCN([C@@H]2c3ccc(Cl)cc3CCc3cccnc32)CC1` [Example 425-F] was tested, and the IC50 was 7 µM.

Same assay, conditions: Ras-CVLS farnesylation, partially purified rat brain FPT; read-out: FPT IC50
`CC(=O)N1CCN(C2c3ccc(Cl)cc3CCc3cccnc32)CC1C` (stereo not drawn) [Example 149] was tested, and the IC50 was 10.8 µM.
`O=C1CCC(C(=O)N2CCC(=C3c4ccc(Cl)cc4CCc4cccnc43)CC2)O1` (stereo not drawn) [Example 39] was tested, and the IC50 was 13.4 µM.
`CC1(C2=CCN(C(=O)Cc3ccncc3)CC2)c2ccc(Cl)cc2CCc2cccnc21` (stereo not drawn) [Example 410-F] gave an IC50 of 2.2 µM.
For `O=C(C1CCCO1)N1CCC(=C2c3ccc(Cl)cc3CCc3cccnc32)CC1` (stereo not drawn) [Example 19A], the IC50 was 5.1 µM.
For `CNS(=O)(=O)c1ccc(C(=O)N2CCC(=C3c4ccc(Cl)cc4CCc4cccnc43)CC2)cc1` [Example 92], the IC50 was 3.9 µM.
With `O=C(C1CCC(=NO)CC1)N1CCC(=C2c3ccc(Cl)cc3CCc3cccnc32)CC1` (stereo not drawn) [Example 104] the IC50 was 4.7 µM.
`O=C(c1c[nH]c2ccccc12)N1CCC(=C2c3ccc(Cl)cc3CCc3cccnc32)CC1` [Example 30] was tested, and the IC50 was 5.7 µM.
Work on `O=C(Cc1cccnc1)N1CCC(=C2c3ccc(Cl)cc3CC(O)c3cccnc32)CC1` (stereo not drawn) [Example 280] yielded an IC50 of 23 µM.
`O=C(Cc1cccnc1)N1CCC(=C2c3ccccc3CCc3cccnc32)CC1` [Example 323] gave an IC50 of 4.9 µM.
Work on `CC(=O)N1CCC(=C2c3ccc(Cl)cc3CCc3c(Cl)ccnc32)CC1` [Example 135] yielded an IC50 of 7.7 µM.
Compound `CC1(C2CCN(C(=O)Cc3ccc[n+]([O-])c3)CC2)c2ccc(Cl)cc2CCc2cc(Br)cnc21` (stereo not drawn) [Example 410-C] has an IC50 of 0.052 µM.
Work on `O=C(Cc1csc2ccccc12)N1CCC(=C2c3ccc(Cl)cc3CCc3cccnc32)CC1` [Example 221] yielded an IC50 of 3.71 µM.
In the case of `O=C(c1ccnnc1)N1CCC(=C2c3ccc(Cl)cc3CCc3cccnc32)CC1` [Example 14], the IC50 is reported as 4.6 µM.
Compound `O=C(c1ccnc2ccccc12)N1CCC(=C2c3ccc(Cl)cc3CCc3cccnc32)CC1` [Example 38] has an IC50 of 12.1 µM.
With `CS(=O)(=O)Nc1cnc2c(c1)CCc1cc(Cl)ccc1C2=C1CCN(C(=O)Cc2ccncc2)CC1` [Example 404] the IC50 was 4.6 µM.
In the case of `O=C(c1cncc2ccccc12)N1CCC(=C2c3ccc(Cl)cc3CCc3cccnc32)CC1` [Example 32], the IC50 is reported as 8.7 µM.
`COC(=O)CSc1ccnc2c1CCc1cc(Cl)ccc1C2=C1CCN(C(=O)Cc2cccnc2)CC1` [Example 257] showed an IC50 of 2.3 µM.
In the case of `COc1cc(C(=O)N2CCC(=C3c4ccc(Cl)cc4CCc4cccnc43)CC2)cc(OC)c1O` [Example 24], the IC50 is reported as 6.2 µM.
`C[S+]([O-])c1ccnc2c1CCc1cc(Cl)ccc1C2=C1CCN(C(=O)Cc2cccnc2)CC1` (stereo not drawn) [Example 256] gave an IC50 of 4.9 µM.
Compound `CN(C)c1cc(C(=O)N2CCC(=C3c4ccc(Cl)cc4CCc4cccnc43)CC2)ccn1` [Example 110] has an IC50 of 8.3 µM.
`O=C(Cc1cccnc1)N1CCC(=C2c3ccc(Cl)cc3CCc3c(O)ccnc32)CC1` [Example 252] was tested, and the IC50 was 7.2 µM.
Work on `O=C(Cc1c(O)cccc1O)N1CCC(=C2c3ccc(Cl)cc3CCc3cccnc32)CC1` [Example 125] yielded an IC50 of 10.3 µM.
`CC(O)C(=O)N1CCC(=C2c3ccc(Cl)cc3CCc3cccnc32)CC1` (stereo not drawn) [Example 116] gave an IC50 of 15.7 µM.
Compound `O=C(c1ccnc(Cl)c1)N1CCC(=C2c3ccc(Cl)cc3CCc3cccnc32)CC1` [Example 28] has an IC50 of 7.3 µM.
In the case of `CC(=O)N1CCC(=C2c3ccc(Cl)cc3CCc3cccnc32)CC1` [Example 59], the IC50 is reported as 26.9 µM.
In the case of `O=C(Cc1cc[n+]([O-])cc1)N1CCC(=C2c3ccc(Cl)cc3CCc3ccc[n+]([O-])c32)CC1` [Example 232], the IC50 is reported as 6 µM.
Work on `O=C(c1ccccn1)N1CCC(=C2c3ccc(Cl)cc3CCc3cccnc32)CC1` [Example 29] yielded an IC50 of 8 µM.
For `CCc1cc2c(cc1Cl)C=Cc1cccnc1C2C1CCN(C(=O)Cc2ccncc2)CC1` (stereo not drawn) [Example 362], the IC50 was 1.16 µM.
Compound `O=C(N[C@@H]1C[C@H]1c1ccccc1)N1CCC(=C2c3ccc(Cl)cc3CCc3cccnc32)CC1` [Example 101] has an IC50 of 4.6 µM.
`COCC(=O)N1CCC(=C2c3ccc(Cl)cc3CCc3cccnc32)CC1` [Example 58] showed an IC50 of 14.4 µM.
`O=C(c1cnc(O)nc1O)N1CCC(=C2c3ccc(Cl)cc3CCc3cccnc32)CC1` [Example 33] showed an IC50 of 8.7 µM.
`O=C(c1ccoc1)N1CCC(=C2c3ccc(Cl)cc3CCc3cccnc32)CC1` [Example 55] showed an IC50 of 5.9 µM.
`NCC(=O)N1CCC(CC(=O)N2CCN(C3c4ccc(Cl)cc4CCc4cccnc43)CC2)CC1` (stereo not drawn) [Example 433-C] was tested, and the IC50 was 2.5 µM.
For `NC(=O)c1ccc2c(c1)CCc1cccnc1C2=C1CCN(C(=O)Cc2ccncc2)CC1` [Example 436-D], the IC50 was 0.75 µM.
With `CN1CCC(CC(=O)N2CCC(=C3c4ccc(Cl)cc4CCc4c3n(C)cc(Br)c4=O)CC2)CC1` [Example 410-M] the IC50 was ~12 µM.
For `O=C1Cc2cc(Cl)ccc2C(=C2CCN(C(=O)Cc3cccnc3)CC2)c2ncccc21` [Example 279], the IC50 was 7.7 µM.
In the case of `CNc1ccc(C(=O)N2CCC(=C3c4ccc(Cl)cc4CCc4cccnc43)CC2)cn1` [Example 109], the IC50 is reported as 7.2 µM.
Work on `N[C@@H](CO)C(=O)N1CCC(CC(=O)N2CCN(C3c4ccc(Cl)cc4CCc4cccnc43)CC2)CC1` (stereo partly drawn) [Example 433-A] yielded an IC50 of 1.1 µM.
`O=C(Cc1cccnc1)N1CCC(C2c3ccc(Cl)cc3C=Cc3c(Cl)ccnc32)CC1` (stereo not drawn) [Example 273] showed an IC50 of 0.84 µM.
`O=C(C(=O)N1CCC(=C2c3ccc(Cl)cc3CCc3cccnc32)CC1)c1ccccc1` [Example 296] showed an IC50 of 4.1 µM.
With `CC(C)(C)OC(=O)NCC(=O)N1CCC(=C2c3ccc(Cl)cc3CCc3cccnc32)CC1` [Example 112] the IC50 was 8.8 µM.
`Cn1nnnc1Sc1ccnc2c1CCc1cc(Cl)ccc1C2=C1CCN(C(=O)Cc2cccnc2)CC1` [Example 259] showed an IC50 of 2.2 µM.
`CC(C)(C(=O)N1CCC(=C2c3ccc(Cl)cc3CCc3cc(Br)cnc32)CC1)c1ccc[n+]([O-])c1` [Example 360] showed an IC50 of 0.59 µM.

Same assay, conditions: at 12 μM
`O=C(c1cc[n+]([O-])cc1)N1CCC(=C2c3ccccc3CCc3cc(Cl)ccc32)CC1` [Example 146] was tested, and the FPT inhibition was 45% at 12 μM.
With `O=C(c1c[nH]c2ccccc12)N1CCN(C2c3ccc(Cl)cc3CCc3cccnc32)CC1` (stereo not drawn) [Example 368] the FPT inhibition was 14 @12 μM %.

Same assay, conditions: at 13 μM
`O=C(c1cc2ccccc2[nH]1)N1CCC(=C2c3ccc(Cl)cc3CCc3cccnc32)CC1` [Example 40] showed an FPT inhibition of 44% at 13 μM.

Same assay, conditions: at 14.1 μM
`CC(=O)N1CCC(=C2c3ccc(Cl)cc3CCc3cc(C(C)(C)C)c[n+]([O-])c32)CC1` [Example 133] was tested, and the FPT inhibition was 16% at 14.1 μM.

Same assay, conditions: at 16.3 μM
With `CC(=O)N1CCC(=C2c3ccc(Cl)cc3CC(C)c3cccnc32)CC1` (stereo not drawn) [Example 137] the FPT inhibition was 15% at 16.3 μM.

Same assay, conditions: at 39 μM
With `Cc1ccc(S(=O)(=O)NC(=O)N2CCC(=C3c4ccc(Cl)cc4CCc4cccnc43)CC2)cc1` [Example 120] the FPT inhibition was 4% at 39 μM.

Same assay, conditions: at 50 μM
`CC(=O)N1CCC(C2c3cc4ccccc4cc3CCc3ccc[n+]([O-])c32)CC1` (stereo not drawn) [Example 141] was tested, and the FPT inhibition was 29% at 50 μM.
`CC(=O)N1CCC(=C2c3ccc(Cl)cc3CCc3ncccc32)CC1` [Example 144] was tested, and the FPT inhibition was 30% at 50 μM.

Same assay, conditions: enzyme inhibition; read-out: FPT IC50
Compound `CCNC(=O)N1CCC(CC(=O)N2CCN(C3c4ccc(Cl)cc4CCc4cccnc43)CC2)CC1` (stereo not drawn) [Example 431-B] has an IC50 of 0.92 µM.
Work on `NC(=O)N1CCC(CC(=O)N2CCN(C3c4ccc(Cl)cc4CCc4cccnc43)CC2)CC1` (stereo not drawn) [Example 431] yielded an IC50 of 0.82 µM.
`CN1CCC(CC(=O)N2CCC(=C3c4ccc(Cl)cc4CCc4cc(Cl)cnc43)CC2)CC1` [Example 411-X] showed an IC50 of 0.45 µM.
In the case of `CNC(=O)N1CCC(CC(=O)N2CCN(C3c4ccc(Cl)cc4CCc4cccnc43)CC2)CC1` (stereo not drawn) [Example 431-A], the IC50 is reported as 1.05 µM.
In the case of `CN1CCCC(CC(=O)N2CCN([C@H]3c4ccc(Cl)cc4CCc4cccnc43)CC2)C1` (stereo partly drawn) [Example 425-S], the IC50 is reported as 0.6 µM.
In the case of `O=C(Nc1ccc[n+]([O-])c1)N1CCN(C2c3ccc(Cl)cc3CCc3cc(Br)cnc32)CC1` (stereo not drawn) [Example 427-C], the IC50 is reported as 0.24 µM.
`CN1CCC(CC(=O)N2CCN([C@H]3c4ccc(Cl)cc4CCc4cccnc43)CC2)CC1` [Example 425-N] gave an IC50 of 0.64 µM.
Compound `CNC(=S)N1CCC(CC(=O)N2CCN(C3c4ccc(Cl)cc4CCc4cccnc43)CC2)CC1` (stereo not drawn) [Example 431-E] has an IC50 of 0.88 µM.
In the case of `CCN1CCC(CC(=O)N2CCN(C3c4ccc(Cl)cc4CCc4cccnc43)CC2)CC1` (stereo not drawn) [Example 429], the IC50 is reported as 1.27 µM.
`O=C(Cc1ccc[n+]([O-])c1)N1CCC(C2c3ccc(Cl)cc3CCc3cc(Br)cnc32)CC1` (stereo not drawn) [Example 411-Z] was tested, and the IC50 was 1.5 µM.
Compound `O=C(Cc1cc[n+]([O-])cc1)N1CCC(=C2c3ccc(Cl)cc3C=Cc3cccnc32)CC1` [Example 417-A] has an IC50 of 0.85 µM.
For `CC(C)(C)NC(=O)N1CCC(CC(=O)N2CCN(C3c4ccc(Cl)cc4CCc4cccnc43)CC2)CC1` (stereo not drawn) [Example 431-D], the IC50 was 1 µM.
`CN1CCCC(CC(=O)N2CCC(=C3c4ccc(Cl)cc4CCc4cc(Cl)cnc43)CC2)C1` (stereo not drawn) [Example 411-V] showed an IC50 of 0.27 µM.
In the case of `CC(C)(C(=O)N1CCN(C2c3ccc(Cl)cc3CCc3cccnc32)CC1)c1cc[n+]([O-])cc1` (stereo not drawn) [Example 425-A], the IC50 is reported as 2.2 µM.
With `CCCNC(=O)N1CCC(CC(=O)N2CCN(C3c4ccc(Cl)cc4CCc4cccnc43)CC2)CC1` (stereo not drawn) [Example 431-C] the IC50 was 0.88 µM.
`O=C(Cc1ccnc(OCc2ccccc2)c1)N1CCC(=C2c3ccc(Cl)cc3CCc3cc(Br)cnc32)CC1` [Example 411-DD] was tested, and the IC50 was 3.1 µM.
